In patent US4927851A, “Analogs of mevalonolactone and derivatives thereof” (Sandoz Pharm. Corp., priority 1988, dated 1990):
Counter-ions that a name gives are not always drawn. Each block holds one compound with its values, some of them ahead of it.

What was measured:
[1] = tested on: 3β-hydroxysterol synthesis; experiment: Test B. In Vivo Cholesterol Biosynthesis Inhibition Test; settings: Rattus norvegicus, po; rats, orally administered, 0.01-200 mg/kg body weight; read-out: ED50, dose producing a 50% inhibition of 3β-hydroxysterol synthesis
Procedure: Test B. In Vivo Cholesterol Biosynthesis Inhibition Test:
In this test the rats are orally administered the test substance (compound of Formula I) at dose of 0.01-200 mg/kg. body weight. The obtained ED50 is the dose of the test substance observed or calculated to produce a 50% inhibition of 3β-hydroxysterol synthesis.

HMG-CoA reductase = molecular target: T1, HMG-CoA reductase (Rattus norvegicus, UniProt P51639); experiment: Test A. In Vitro Microsomal Assay of HMG-CoA Reductase Inhibition; assay type: biochemical; settings: test substance 0.0005-2,000 μmolar, read-out: IC50, concentration producing a 50% inhibition of HMG-CoA reductase activity
T1 construct: from tissue; host or cells: microsomes (printed); rat liver, Sprague-Dawley, by own knowledge of the cited method
T1 sequence (P51639 1-887): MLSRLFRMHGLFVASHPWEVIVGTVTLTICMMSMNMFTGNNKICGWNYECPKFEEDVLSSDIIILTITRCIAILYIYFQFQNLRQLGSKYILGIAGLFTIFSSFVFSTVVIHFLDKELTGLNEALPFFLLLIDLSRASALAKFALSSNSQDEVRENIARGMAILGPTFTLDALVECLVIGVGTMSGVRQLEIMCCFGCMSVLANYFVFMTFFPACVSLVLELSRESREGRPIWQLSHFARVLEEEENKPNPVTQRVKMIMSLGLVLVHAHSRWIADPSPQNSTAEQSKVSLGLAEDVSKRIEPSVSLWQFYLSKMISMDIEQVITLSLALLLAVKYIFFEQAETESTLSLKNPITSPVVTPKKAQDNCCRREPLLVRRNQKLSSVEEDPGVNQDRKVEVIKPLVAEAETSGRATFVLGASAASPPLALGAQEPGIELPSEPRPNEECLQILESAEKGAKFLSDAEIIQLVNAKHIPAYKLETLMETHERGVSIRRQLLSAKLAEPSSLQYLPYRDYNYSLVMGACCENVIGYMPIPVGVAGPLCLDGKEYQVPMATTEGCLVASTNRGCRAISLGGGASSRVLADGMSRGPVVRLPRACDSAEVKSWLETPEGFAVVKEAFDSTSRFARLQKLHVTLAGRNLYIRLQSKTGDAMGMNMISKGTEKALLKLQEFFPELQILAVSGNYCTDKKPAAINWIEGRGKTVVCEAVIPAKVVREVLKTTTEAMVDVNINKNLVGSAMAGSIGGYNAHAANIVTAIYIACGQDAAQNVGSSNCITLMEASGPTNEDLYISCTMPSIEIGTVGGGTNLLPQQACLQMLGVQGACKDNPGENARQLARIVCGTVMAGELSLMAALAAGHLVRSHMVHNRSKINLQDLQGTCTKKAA
Procedure: Test A. In Vitro Microsomal Assay of HMG-CoA Reductase Inhibition:
This test is carried out precisely as described in column 53 of U.S. Pat. No. 4,613,610 and on page 30 of World (PCT) Published Patent Application No. 84/02131, both of which are hereby incorporated by reference as if set forth herein in their entirety. The concentration of the test substance (compound of Formula I) in the assay system is 0.0005-2,000 μmolar. The obtained IC50 is the concentration of the test substance in the assay system observed or calculated to produce a 50% inhibition of HMG-CoA reductase activity.

SMILES: CC[C@H](C)C(=O)O[C@H]1CCC=C2C=C[C@H](C)[C@H](CC[C@@H]3C[C@@H](O)CC(=O)O3)[C@H]21 [Compactin, reference compound]
- ED50 [1]: 3.5 mg/kg

SMILES: CC(C)c1sc(C(C)C)c(-c2ccc(F)cc2)c1/C=C/C(O)CC(O)CC(=O)O (centres unmarked) [Example 8 (sodium salt)]
- IC50 (HMG-CoA reductase): 27 nM
- ED50 [1]: 0.076 mg/kg

SMILES: CC[C@H](C)C(=O)O[C@H]1C[C@@H](C)C=C2C=C[C@H](C)[C@H](CC[C@@H]3C[C@@H](O)CC(=O)O3)[C@H]21 [Mevinolin, reference compound]
- ED50 [1]: 0.41 mg/kg

More lines, main results first:

- IC50 (HMG-CoA reductase): 190 nM
SMILES: CC(C)c1oc(-c2ccccc2)c(-c2ccc(F)cc2)c1/C=C/C(O)CC(O)CC(=O)O (centres unmarked) [Example 5b]
- ED50 [1]: 0.35 mg/kg

- IC50 (HMG-CoA reductase): 28 nM
SMILES: CC(C)c1sc(-c2ccccc2)c(-c2ccccc2)c1/C=C/C(O)CC(O)CC(=O)O (centres unmarked) [Example 5c, sodium(E)-7-(4-phenyl-2-isopropyl-5-phenylthien-3-yl)-3,5-dihydroxy-hept-6-enoate]
- ED50 [1]: 0.169 mg/kg
